# From ChEMBL document CHEMBL1201862, “PubChem BioAssay data set” (2004)
# The source made the active and inactive calls.
# Assays:
# Hexokinase HKDC1 = molecular target: T1, Hexokinase HKDC1 (Homo sapiens, UniProt Q2TB90); test: HKDC1 hexokinase activators, dose response, biochemical, W721R variant (AID 504730); assay type: functional
# T1 sequence (Q2TB90 whole entry): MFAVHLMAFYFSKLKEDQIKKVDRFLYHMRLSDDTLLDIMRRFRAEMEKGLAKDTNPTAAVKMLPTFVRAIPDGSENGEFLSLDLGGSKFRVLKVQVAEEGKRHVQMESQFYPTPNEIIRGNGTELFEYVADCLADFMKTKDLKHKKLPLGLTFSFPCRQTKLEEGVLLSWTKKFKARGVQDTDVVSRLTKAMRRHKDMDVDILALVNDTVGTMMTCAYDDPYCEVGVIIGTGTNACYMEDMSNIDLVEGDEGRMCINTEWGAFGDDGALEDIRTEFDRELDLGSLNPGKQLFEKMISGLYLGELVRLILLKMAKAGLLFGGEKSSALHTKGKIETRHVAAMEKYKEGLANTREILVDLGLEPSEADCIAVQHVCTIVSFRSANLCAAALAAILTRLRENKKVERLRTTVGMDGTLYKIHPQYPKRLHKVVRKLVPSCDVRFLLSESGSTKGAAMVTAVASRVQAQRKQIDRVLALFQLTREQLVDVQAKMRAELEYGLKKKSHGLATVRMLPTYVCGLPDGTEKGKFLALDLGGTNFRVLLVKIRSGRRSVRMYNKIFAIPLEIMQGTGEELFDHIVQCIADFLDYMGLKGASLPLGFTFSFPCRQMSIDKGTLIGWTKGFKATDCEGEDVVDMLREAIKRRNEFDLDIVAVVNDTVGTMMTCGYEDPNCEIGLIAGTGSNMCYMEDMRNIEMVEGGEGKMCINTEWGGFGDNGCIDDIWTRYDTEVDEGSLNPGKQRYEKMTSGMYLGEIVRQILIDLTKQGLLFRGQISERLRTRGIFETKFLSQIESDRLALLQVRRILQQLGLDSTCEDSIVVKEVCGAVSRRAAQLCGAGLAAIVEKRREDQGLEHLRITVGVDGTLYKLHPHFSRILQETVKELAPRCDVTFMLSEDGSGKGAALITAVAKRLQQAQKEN
# Hexokinase-1 = molecular target: T2, Hexokinase-1 (Homo sapiens, UniProt P19367); test: hexokinase 1 activators, dose response, selectivity assay for HKDC1 activator project, biochemical (AID 504762); assay type: functional
# T2 sequence (P19367 whole entry): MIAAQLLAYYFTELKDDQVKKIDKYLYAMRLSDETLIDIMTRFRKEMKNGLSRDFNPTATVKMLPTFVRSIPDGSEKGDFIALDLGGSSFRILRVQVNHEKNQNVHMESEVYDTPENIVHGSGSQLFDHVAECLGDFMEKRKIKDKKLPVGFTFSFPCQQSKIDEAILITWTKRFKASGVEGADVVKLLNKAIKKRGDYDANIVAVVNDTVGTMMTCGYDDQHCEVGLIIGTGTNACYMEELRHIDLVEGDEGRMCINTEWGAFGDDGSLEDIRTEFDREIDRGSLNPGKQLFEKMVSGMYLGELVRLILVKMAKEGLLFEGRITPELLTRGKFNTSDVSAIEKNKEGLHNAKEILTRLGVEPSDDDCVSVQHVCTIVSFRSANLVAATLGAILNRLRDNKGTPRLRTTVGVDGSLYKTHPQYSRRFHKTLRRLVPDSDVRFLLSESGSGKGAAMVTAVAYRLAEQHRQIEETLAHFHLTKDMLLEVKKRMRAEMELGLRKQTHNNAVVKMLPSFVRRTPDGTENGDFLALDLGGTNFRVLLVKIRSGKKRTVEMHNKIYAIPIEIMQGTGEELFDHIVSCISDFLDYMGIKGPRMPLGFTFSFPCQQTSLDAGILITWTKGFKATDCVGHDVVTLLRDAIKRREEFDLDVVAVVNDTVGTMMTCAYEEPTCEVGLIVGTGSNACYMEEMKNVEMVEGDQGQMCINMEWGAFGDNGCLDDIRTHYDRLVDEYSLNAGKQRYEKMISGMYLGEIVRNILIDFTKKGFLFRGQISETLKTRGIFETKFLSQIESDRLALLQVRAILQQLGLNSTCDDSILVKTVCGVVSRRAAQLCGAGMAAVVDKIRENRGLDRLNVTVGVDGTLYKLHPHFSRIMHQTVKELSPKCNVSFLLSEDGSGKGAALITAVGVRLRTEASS
# [1] = molecular target: Peroxisome proliferator-activated receptor gamma/Nuclear receptor coactivator 1 (Homo sapiens, UniProt P37231); test: TR-FRET dose response biochemical High Throughput Screening assay for agonists of the steroid receptor coactivator 1 (SRC-1) recruitment by the peroxisome proliferator-activated receptor gamma (PPAR gamma): non-selective agonists. [Related pubchem assays (depositor defined):AID1300, AID1808, AID504735, AID631]; assay type: protein assay
# [2] = molecular target: Peroxisome proliferator-activated receptor gamma/Nuclear receptor coactivator 2 (Homo sapiens, UniProt P37231); test: (§1) TR-FRET dose response biochemical High Throughput Screening assay for agonists of the steroid receptor coactivator 2 (SRC-2) recruitment by the peroxisome proliferator-activated receptor gamma (PPAR gamma): non-selective agonists. [Related pubchem assays: 1297, 1032 ]; assay type: functional
# Chain of Peroxisome proliferator-activated receptor gamma/Nuclear receptor coactivator 2 (P37231 whole entry): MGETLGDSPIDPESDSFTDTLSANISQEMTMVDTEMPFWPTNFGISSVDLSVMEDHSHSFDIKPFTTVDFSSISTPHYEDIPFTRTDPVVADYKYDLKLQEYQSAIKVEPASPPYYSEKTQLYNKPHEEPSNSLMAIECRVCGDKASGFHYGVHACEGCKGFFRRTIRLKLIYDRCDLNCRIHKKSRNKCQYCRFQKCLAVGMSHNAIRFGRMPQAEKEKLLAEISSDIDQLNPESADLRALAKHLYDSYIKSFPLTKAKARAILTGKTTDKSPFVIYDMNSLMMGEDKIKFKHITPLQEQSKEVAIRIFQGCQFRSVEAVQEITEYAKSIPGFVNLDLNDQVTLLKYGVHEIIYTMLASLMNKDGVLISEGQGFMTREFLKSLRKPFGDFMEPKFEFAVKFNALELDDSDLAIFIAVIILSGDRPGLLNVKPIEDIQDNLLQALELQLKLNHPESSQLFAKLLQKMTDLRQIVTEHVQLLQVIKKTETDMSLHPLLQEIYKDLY
# Chain of Peroxisome proliferator-activated receptor gamma/Nuclear receptor coactivator 2 (Q15596 whole entry, further chain): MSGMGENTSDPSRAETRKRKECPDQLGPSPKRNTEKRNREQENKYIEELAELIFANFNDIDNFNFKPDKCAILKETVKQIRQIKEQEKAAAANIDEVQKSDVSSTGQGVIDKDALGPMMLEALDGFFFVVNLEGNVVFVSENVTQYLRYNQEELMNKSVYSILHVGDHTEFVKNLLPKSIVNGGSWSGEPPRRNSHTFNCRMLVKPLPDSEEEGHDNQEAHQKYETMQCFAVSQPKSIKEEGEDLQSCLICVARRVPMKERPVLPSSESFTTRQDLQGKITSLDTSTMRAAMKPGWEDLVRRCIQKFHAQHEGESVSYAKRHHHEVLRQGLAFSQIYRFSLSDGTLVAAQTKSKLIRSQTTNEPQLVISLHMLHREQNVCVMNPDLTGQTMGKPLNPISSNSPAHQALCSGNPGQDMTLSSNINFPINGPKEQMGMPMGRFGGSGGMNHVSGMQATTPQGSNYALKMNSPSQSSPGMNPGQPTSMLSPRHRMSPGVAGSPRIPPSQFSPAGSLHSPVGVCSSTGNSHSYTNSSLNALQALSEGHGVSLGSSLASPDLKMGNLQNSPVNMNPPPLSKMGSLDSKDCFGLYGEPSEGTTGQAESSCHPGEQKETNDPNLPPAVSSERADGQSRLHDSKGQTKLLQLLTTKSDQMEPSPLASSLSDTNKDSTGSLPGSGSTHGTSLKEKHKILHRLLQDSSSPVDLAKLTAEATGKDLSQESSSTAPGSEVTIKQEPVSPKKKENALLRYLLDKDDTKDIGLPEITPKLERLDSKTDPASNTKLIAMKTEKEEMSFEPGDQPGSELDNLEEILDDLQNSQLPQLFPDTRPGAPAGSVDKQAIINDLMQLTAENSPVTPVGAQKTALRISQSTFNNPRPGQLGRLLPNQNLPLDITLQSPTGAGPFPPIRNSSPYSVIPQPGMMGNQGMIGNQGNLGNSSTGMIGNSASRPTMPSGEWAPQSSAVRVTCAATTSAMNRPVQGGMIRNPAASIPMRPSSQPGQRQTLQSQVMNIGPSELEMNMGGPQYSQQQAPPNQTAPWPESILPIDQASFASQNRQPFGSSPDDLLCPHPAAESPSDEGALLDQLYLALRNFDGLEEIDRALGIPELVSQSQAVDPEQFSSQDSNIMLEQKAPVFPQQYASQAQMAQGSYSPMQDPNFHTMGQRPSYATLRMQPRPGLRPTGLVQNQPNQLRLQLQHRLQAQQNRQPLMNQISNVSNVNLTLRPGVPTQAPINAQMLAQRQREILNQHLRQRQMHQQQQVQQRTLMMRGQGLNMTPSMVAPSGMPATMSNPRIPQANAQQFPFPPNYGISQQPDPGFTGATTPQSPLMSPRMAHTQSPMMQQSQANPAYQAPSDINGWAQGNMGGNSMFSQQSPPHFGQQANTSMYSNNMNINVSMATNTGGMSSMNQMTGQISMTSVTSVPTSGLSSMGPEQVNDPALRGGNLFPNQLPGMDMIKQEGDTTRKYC
# [3] = molecular target: Peroxisome proliferator-activated receptor gamma/Nuclear receptor coactivator 3 (Homo sapiens, UniProt P37231); test: as §1, with “3 (SRC-3)” for “2 (SRC-2)”, “1301 (Confirmation screen.), 1048 (Primary screen.)]” for “1297, 1032 ]”; assay type: functional
# Chain of Peroxisome proliferator-activated receptor gamma/Nuclear receptor coactivator 3 (P37231 whole entry): as the sequence (P37231 whole entry) above
# Chain of Peroxisome proliferator-activated receptor gamma/Nuclear receptor coactivator 3 (Q9Y6Q9 whole entry, further chain): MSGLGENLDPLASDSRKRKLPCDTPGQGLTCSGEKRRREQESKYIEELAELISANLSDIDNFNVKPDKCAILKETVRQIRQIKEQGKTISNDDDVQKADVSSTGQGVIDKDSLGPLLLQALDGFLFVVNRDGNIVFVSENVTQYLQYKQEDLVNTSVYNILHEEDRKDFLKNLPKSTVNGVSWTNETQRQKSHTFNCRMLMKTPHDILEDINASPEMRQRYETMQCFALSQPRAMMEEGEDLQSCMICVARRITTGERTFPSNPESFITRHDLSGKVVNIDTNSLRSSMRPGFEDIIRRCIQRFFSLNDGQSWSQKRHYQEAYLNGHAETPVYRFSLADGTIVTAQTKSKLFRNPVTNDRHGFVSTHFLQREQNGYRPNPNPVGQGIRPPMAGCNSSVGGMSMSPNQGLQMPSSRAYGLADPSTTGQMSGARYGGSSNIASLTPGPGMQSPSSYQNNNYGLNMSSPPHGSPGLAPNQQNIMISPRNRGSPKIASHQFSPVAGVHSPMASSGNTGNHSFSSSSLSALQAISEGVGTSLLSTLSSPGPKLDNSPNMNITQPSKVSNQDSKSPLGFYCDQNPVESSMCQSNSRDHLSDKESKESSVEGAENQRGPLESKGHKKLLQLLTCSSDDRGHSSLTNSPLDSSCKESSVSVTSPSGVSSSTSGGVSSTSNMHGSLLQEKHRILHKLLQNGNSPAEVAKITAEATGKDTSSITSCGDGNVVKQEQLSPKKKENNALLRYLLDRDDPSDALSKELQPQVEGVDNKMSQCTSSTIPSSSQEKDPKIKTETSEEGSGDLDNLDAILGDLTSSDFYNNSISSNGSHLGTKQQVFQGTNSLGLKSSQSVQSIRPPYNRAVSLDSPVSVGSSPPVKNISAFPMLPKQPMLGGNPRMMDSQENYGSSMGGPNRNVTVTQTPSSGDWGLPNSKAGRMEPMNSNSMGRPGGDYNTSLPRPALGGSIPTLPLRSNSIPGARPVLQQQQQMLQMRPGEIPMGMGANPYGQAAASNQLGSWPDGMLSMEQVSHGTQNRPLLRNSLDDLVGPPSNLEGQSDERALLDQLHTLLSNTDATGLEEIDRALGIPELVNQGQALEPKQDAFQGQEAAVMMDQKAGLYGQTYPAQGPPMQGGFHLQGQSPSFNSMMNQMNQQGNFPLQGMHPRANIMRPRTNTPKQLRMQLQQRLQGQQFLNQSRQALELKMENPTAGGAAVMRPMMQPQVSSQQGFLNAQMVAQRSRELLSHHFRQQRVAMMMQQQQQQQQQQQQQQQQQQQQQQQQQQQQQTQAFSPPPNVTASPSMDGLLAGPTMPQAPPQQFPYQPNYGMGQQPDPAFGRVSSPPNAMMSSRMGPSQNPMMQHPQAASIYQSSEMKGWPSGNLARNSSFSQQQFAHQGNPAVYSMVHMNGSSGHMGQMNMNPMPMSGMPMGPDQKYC
# [4] = molecular target: Intestinal-type alkaline phosphatase (Homo sapiens, UniProt P09923); test: activation of human intestinal alkaline phosphatase – biochemical, dose response (AID 488873); assay type: functional
# [5] = molecular target: Intestinal-type alkaline phosphatase (Mus musculus, UniProt P24822); test: mouse intestinal alkaline phosphatase activators, dose response, biochemical, luminescence, uHTS hits (AID 488783); assay type: functional
# Chain of Intestinal-type alkaline phosphatase (Mus musculus, UniProt P24822) (P24822 whole entry): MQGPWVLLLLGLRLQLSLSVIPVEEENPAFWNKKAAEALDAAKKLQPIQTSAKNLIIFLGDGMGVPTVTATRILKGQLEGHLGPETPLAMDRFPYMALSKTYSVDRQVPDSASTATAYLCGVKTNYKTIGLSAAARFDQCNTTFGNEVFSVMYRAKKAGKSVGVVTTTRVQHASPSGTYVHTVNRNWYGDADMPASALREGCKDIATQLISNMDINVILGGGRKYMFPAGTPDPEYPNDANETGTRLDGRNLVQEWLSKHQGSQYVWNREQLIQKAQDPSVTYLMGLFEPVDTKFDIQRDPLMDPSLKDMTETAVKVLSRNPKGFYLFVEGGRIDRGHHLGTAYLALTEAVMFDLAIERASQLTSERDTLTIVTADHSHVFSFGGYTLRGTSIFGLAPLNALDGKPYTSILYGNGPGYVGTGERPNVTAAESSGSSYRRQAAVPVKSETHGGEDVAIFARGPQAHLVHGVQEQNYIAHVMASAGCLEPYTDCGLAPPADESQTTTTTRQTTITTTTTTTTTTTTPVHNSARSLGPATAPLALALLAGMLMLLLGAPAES
# [6] = Counterscreen for IDE inhibitors: Luminescence-based cell-based high throughput dose response assay to identify compounds that are cytotoxic to HEK cells. [Related pubchem assays: 434962 (Primary screen (IDE inhibitors in singlicate)), 449730 (Counterscreen (Cytotoxicity in triplicate)), 435028 (Confirmation (IDE inhibitors in triplicate)) …; assay type: functional; details: HEK293
# Insulin-degrading enzyme = molecular target: T3, Insulin-degrading enzyme (Homo sapiens, UniProt P14735); test: Dose Response: Fluorescence polarization-based cell-based high throughput dose response assay for inhibitors of insulin-degrading enzyme (IDE). [Related pubchem assays: 434962 (Primary screen (IDE inhibitors in singlicate)), 449730 (Counterscreen (Cytotoxicity in triplicate)), 435028 (Confirmation (IDE inhibitors in triplicate)), 434984 (Summary …; assay type: functional
# T3 sequence (P14735 whole entry): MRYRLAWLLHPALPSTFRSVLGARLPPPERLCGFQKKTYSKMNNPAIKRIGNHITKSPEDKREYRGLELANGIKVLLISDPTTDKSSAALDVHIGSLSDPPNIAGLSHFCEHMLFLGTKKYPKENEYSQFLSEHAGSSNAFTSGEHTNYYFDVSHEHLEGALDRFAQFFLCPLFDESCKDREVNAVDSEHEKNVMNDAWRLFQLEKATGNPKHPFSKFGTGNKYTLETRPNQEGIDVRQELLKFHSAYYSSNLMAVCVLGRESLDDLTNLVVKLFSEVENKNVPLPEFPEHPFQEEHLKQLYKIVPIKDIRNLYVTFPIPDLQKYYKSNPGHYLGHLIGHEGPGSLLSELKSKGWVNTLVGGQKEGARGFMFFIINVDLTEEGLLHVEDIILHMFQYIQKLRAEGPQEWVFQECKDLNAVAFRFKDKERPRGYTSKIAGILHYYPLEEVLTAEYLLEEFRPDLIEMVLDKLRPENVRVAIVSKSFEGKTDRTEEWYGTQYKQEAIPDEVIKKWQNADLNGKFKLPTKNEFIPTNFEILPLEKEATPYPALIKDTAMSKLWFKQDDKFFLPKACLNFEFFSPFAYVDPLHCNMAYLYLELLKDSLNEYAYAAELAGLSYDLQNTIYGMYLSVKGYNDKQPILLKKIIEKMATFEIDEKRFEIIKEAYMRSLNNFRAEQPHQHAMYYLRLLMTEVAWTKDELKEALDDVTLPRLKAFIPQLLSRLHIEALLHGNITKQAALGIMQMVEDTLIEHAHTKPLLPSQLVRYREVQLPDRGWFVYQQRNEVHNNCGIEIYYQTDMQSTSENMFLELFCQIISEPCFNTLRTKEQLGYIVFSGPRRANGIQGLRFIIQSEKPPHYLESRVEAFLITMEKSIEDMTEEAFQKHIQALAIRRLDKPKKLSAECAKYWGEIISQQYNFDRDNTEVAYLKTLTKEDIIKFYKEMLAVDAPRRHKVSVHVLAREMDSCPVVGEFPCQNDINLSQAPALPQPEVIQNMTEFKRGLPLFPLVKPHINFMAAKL
# [7] = molecular target: Dual specificity tyrosine-phosphorylation-regulated kinase 1A (Rattus norvegicus, UniProt Q63470); assay type: biochemical, Homo sapiens
# [8] = molecular target: T4, Alkaline phosphatase, tissue-nonspecific isozyme (Homo sapiens, UniProt P05186); test: TNAP enzyme activators, dose response, selectivity assay for mouse IAP activator project, biochemical, TNAP isozyme, mouse IAP uHTS hits (AID 488880); assay type: functional
# T4 sequence (P05186 whole entry): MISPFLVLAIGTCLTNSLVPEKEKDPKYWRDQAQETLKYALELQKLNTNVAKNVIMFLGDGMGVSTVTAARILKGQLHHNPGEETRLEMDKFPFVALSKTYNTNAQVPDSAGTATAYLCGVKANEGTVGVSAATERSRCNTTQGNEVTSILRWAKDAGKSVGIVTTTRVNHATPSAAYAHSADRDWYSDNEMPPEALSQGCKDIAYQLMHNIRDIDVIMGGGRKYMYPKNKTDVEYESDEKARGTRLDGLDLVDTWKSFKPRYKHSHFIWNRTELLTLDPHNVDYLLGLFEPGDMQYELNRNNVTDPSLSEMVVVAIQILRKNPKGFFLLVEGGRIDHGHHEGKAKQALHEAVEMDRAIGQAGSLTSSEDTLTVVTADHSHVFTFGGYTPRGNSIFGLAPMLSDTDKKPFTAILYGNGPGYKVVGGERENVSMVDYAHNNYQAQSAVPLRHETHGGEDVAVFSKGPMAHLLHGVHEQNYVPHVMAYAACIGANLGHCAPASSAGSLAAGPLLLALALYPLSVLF
# Paired box protein Pax-8 = Paired box protein Pax-8 (Homo sapiens, UniProt Q06710); test: inhibitors of PAX8-driven TPO luciferase reporter, dose response, RMG-I cells, cherry-pick (AID 687027); assay type: functional, cell-based;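 note: luciferase reporter driven by Pax8 target thyroperoxidase promoter measured by SteadyGlo luminescence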
# Chain of Paired box protein Pax-8 (Q06710 whole entry): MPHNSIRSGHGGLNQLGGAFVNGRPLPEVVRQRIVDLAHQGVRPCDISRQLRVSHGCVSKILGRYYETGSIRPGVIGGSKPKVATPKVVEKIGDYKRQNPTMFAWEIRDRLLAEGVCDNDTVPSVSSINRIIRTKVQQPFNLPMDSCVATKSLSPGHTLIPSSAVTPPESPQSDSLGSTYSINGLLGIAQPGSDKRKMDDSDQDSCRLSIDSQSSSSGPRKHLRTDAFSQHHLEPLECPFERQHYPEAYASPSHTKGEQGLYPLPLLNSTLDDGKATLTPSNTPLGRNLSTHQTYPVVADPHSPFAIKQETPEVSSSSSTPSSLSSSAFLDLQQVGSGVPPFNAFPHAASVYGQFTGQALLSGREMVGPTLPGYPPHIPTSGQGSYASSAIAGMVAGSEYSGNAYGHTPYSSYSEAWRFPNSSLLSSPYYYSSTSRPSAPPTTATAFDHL
# Nonstructural protein 1 = Nonstructural protein 1 (Influenza A virus, UniProt Q194T2); assay type: functional, Influenza A virus (A/California/07/2009(H1N1))
# [9] = molecular target: Heat shock protein HSP 90-alpha (Homo sapiens, UniProt P07900); assay type: functional, organism-based
Structure (SMILES),EC50 (Hexokinase HKDC1),EC50 (Hexokinase-1),EC50 [1],EC50 [2],EC50 [3],also measured
Cc1ccc2oc(=O)c3cnn(CC(=O)N4CCc5ccccc5C4)c3c2c1,16 µM (active),36.7 µM (inactive),–,–,–,–
Fc1cccc(CSc2ncnc3c2oc2ccccc23)c1,–,–,24.2 µM (inactive),14.3 µM (not active),85.8 µM (not active),–
O=C(CSc1ccccc1)Nc1ccc(C(=O)Nc2ccc(O)cc2)cc1,–,–,9.68 µM (active),8.24 µM (active),58.3 µM (not active),–
CSC1=NSC2=NC(=O)/C(=C/c3coc4ccc(O)cc4c3=O)C(=N)N12,–,–,–,–,–,EC50 [4]: 24.9 µM (active); EC50 [5]: 20.8 µM (active); IC50 [6]: > 55.7 µM (not active); IC50 (Insulin-degrading enzyme): > 6.21 µM (active); AC50 [7]: 7.62 µM (active); EC50 [8]: 30.2 µM (active)
CC(=NNC(=S)N1CCN(C2CCCCCC2)CC1)c1ccccn1,8.14 µM (active),> 80 µM (inactive),–,–,–,AC50 (Paired box protein Pax-8): < 0.26 µM (active); IC50 (Nonstructural protein 1): 1.66 µM (active); AC50 [9]: 3.35 µM (active)
